The text below walks through data of patent US9573966B2, “Anti-cancer activity of novel bicyclic heterocycles” (Katholieke Universiteit Leuven, K.U.Leuven R&D, priority 2010, dated 2017).

pIC50: −log10 of the molar value.

One data set deals with hu EOL-1 leukemia. The following applies: Example 222 p.o. once daily, cyclophosphamide once i.p. The procedure: The test compound (Example 222) was dissolved in DMSO (5% final concentration) and further solubilised in 0.5% Tween 80 in 1% methylcellulose. The resulting suspension was warmed for 10 minutes to 37° C. in an ultrasound water bath to obtain a homogeneous formulation for oral administration. At day 0, 24 male NSG mice received a s.c. inoculum of 10^7 EOL-1 cells taken from in vitro culture and mixed with 50% matrigel. At day 10 tumours were palpable, mice were randomized into three treatment groups and therapy initiated. The test compound (Example 222) and the vehicle were administered orally (p.o.) once daily until the end of the experiment. Cyclophosphamide was administered only once intraperitoneally (i.p.).

Another data set has as its system HSB-2 cells. The data set can be described thus: Inhibition of HSB-2 leukemic cell line proliferation (WST-1). The following applies: cytotoxicity on HSB-2 cells, two days incubation, WST-1 read-out. Format: cell-based, human. The method in brief: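 HSB-2 human ALL cells, 50000/well in RPMI-1640 + 10% FCS, exposed to compounds 2 days at 37 °C, then WST-1 2 h, OD 450 nm. Proliferation scaled between untreated (max) and Triton X100 (min) controls; IC50 from ≥4-point curves, each point mean of ≥2 experiments.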

The subject of another data set is HL-60 cells. Description: Inhibition of HL-60 leukemic cell line proliferation (WST-1). The settings on record: cytotoxicity on HL-60 cells, two days incubation, WST-1 read-out. Type of data set: cell-based, human. The method, then:
HL-60 cell line, a human promyelocytic leukemia (ATCC; CCL-240) cell line, was grown in RPMI-1640 medium (Lonza, Belgium) supplemented with 10% fetal calf serum (Hyclone, US) and antibiotics. Exponential growing phase cells were seed in flat bottom 96-well microplates (TTP, Switzerland) at 50000 cells per well in 220 μl of medium with compounds (in different concentrations) and incubated for two days at 37° C., 5% CO2. After incubation, 100 μl of supernatant were removed and 10 μl of WST-1 (Roche, Switzerland) were added. After 2 hour incubation at 37° C., 5% CO2, optical densities were measured at 450 nm. Proliferation is calculated with respect of control points (no compound and treatment with Triton X100 to have maximum and minimum proliferation data). The IC50 was determined from a graph with at least four points, each derived from the mean of at least 2 experiments. […] The results are shown in Table 2 for a number of compounds.

The subject of the next data set is LNCaP cells. Description: Inhibition of LNCaP prostate carcinoma cell line proliferation (WST-1). Type of data set: cell-based. The settings on record: Homo sapiens, 48 h; cytotoxicity on LNCaP cells, two days incubation, WST-1 read-out. The method, then: LNCaP cell line, a prostate carcinoma cell line, was grown in RPMI-1640 medium (Lonza, Belgium) supplemented with 10% fetal calf serum (Hyclone, US) and antibiotics. Exponential growing phase cells were seed in flat bottom 96-well microplates (TTP, Switzerland) at 10000 cells per well in 200 μl of medium. The day after, 20 μl of compounds (in different concentrations) were added and incubated for two days at 37° C., 5% CO2. After incubation, 100 μl of supernatant were removed and 10 μl of WST-1 (Roche, Switzerland) were added. After 2 hour incubation at 37° C., 5% CO2, optical densities were measured at 450 nm. Proliferation is calculated with respect of control points (no compound and treatment with Triton X100 to have maximum and minimum proliferation data). The IC50 was determined from a graph with at least four points, each derived from the mean of at least 2 experiments. […] The results are shown in Table 3 for a number of compounds.

On to `O=P1(N(CCCl)CCCl)NCCCO1` (centres unmarked) [Cyclophosphamide, reference compound], for which, in the data set on hu EOL-1 leukemia (EOL-1 xenograft in NSG mice), the body weight loss is on record as 6% and the tolerability entry was “well tolerated”. The “effect on tumour growth (tumour volume) relative to vehicle” value in the data set on hu EOL-1 leukemia (s.c. EOL-1 tumours in NSG mice, therapy from day 10 to day 21) is reported as “highly significant (p<0.05) inhibition of tumour growth”.

`Nc1nc(N2CCN(C(=O)COc3ccc(Cl)cc3)CC2)c2nc(-c3cccnc3)sc2n1` [Example 121a, 5-amino-7-[4-(4-chlorophenoxyacetyl)piperazin-1-yl]-2-(pyridine-3-yl)thiazolo[5,4-d]pyrimidine]: the negative logarithm of the IC50 (pIC50) was 6.70 with HSB-2 cells (Homo sapiens, HSB2, 48 h); 6.64 in the data set on HL-60 cells (Homo sapiens, 48 h); 4.32 with LNCaP cells.

`Cc1cccc(NC(=O)N2CCN(c3nc(N)nc4sc(-c5ccccc5)nc34)CC2)c1` [Example 220, 4-(5-amino-2-phenylthiazolo[5,4-d]pyrimidin-7-yl)-N-m-tolylpiperazine-1-carboxamide]: the pIC50 in the data set with HSB-2 cells (Homo sapiens, HSB2, 48 h) is 6.11; in the data set on HL-60 cells (Homo sapiens, 48 h), 6.04; with LNCaP cells it was 4.95.

In the case of `CC(C)(Oc1ccc(Cl)cc1)C(=O)N1CCN(c2nc(N)nc3sc(-c4cccnc4)nc23)CC1` [Example 274, 1-(4-(5-amino-2-(pyridin-3-yl)thiazolo[5,4-d]pyrimidin-7-yl)piperazin-1-yl)-2-(4-chlorophenoxy)-2-methylpropan-1-one], the pIC50 in the data set on LNCaP cells was 4.74.

For `COc1ccc(-c2nc3c(N4CCN(C(=O)COc5ccc(Cl)cc5)CC4)nc(N)nc3[nH]2)cc1OC` [Example 390, 1-(4-(2-amino-8-(3,4-dimethoxyphenyl)-9H-purin-6-yl)piperazin-1-yl)-2-(4-chlorophenoxy)ethanone], the pIC50 was 6.35 with HSB-2 cells (Homo sapiens, HSB2, 48 h) and less than 5.00 in the data set with HL-60 cells (Homo sapiens, 48 h).

Take `Nc1nc(N2CCN(C(=O)COc3ccc(Cl)cc3)CC2)c2nc(-c3ccc(Br)cc3)[nH]c2n1` [Example 391, 1-(4-(2-amino-8-(4-bromophenyl)-9H-purin-6-yl)piperazin-1-yl)-2-(4-chlorophenoxy)ethanone]: the pIC50 was 5.67 in the data set on HSB-2 cells (Homo sapiens, HSB2, 48 h) and 5.44 in the data set on HL-60 cells (Homo sapiens, 48 h).

Consider `Nc1nc(N2CCN(C(=O)COc3ccc(Cl)cc3)CC2)c2nc(-c3ccc(Cl)cc3)[nH]c2n1` [Example 392, 1-(4-(2-amino-8-(4-chlorophenyl)-9H-purin-6-yl)piperazin-1-yl)-2-(4-chlorophenoxy)ethanone], for which the pIC50 with HSB-2 cells (Homo sapiens, HSB2, 48 h) is 5.65; with HL-60 cells (Homo sapiens, 48 h) it was 5.50.

With `Nc1nc(N2CCN(C(=O)COc3ccc(Cl)cc3)CC2)c2nc(-c3cccc(Cl)c3)[nH]c2n1` [Example 393, 1-(4-(2-amino-8-(3-chlorophenyl)-9H-purin-6-yl)piperazin-1-yl)-2-(4-chlorophenoxy)ethanone], the negative logarithm of the IC50 (pIC50) with HSB-2 cells (Homo sapiens, HSB2, 48 h) is 5.86; with HL-60 cells (Homo sapiens, 48 h), 5.04.

Turning to `Nc1nc(N2CCN(C(=O)COc3ccc(Cl)cc3)CC2)c2nc(-c3ccc(C(F)(F)F)cc3)[nH]c2n1` [Example 394, 1-(4-(2-amino-8-(4-(trifluoromethyl)phenyl)-9H-purin-6-yl)piperazin-1-yl)-2-(4-chlorophenoxy)ethanone], the negative-log IC50 (pIC50) with HSB-2 cells (Homo sapiens, HSB2, 48 h) was 5.13; with HL-60 cells (Homo sapiens, 48 h), 5.06.

Regarding `Cc1ccc(-c2nc3c(N4CCN(C(=O)COc5ccc(Cl)cc5)CC4)nc(N)nc3[nH]2)cc1` [Example 396, 1-(4-(2-amino-8-p-tolyl-9H-purin-6-yl)piperazin-1-yl)-2-(4-chlorophenoxy)ethanone], the pIC50 was 6.31 in the data set on HSB-2 cells (Homo sapiens, HSB2, 48 h) and 5.30 in the data set on HL-60 cells (Homo sapiens, 48 h).

In the case of `CCCc1nc2c(N3CCN(C(=O)COc4ccc(Cl)cc4)CC3)nc(N)nc2[nH]1` [Example 397, 1-(4-(2-amino-8-propyl-9H-purin-6-yl)piperazin-1-yl)-2-(4-chlorophenoxy)ethanone], the negative logarithm of the IC50 (pIC50) in the data set with HSB-2 cells (Homo sapiens, HSB2, 48 h) is 5.35; in the data set with HL-60 cells (Homo sapiens, 48 h), 5.90.

With `Nc1nc(N2CCN(C(=O)COc3ccc(Cl)cc3)CC2)c2nc(C3CC3)[nH]c2n1` [Example 398, 1-(4-(2-amino-8-cyclopropyl-9H-purin-6-yl)piperazin-1-yl)-2-(4-chlorophenoxy)ethanone], the pIC50 in the data set with HSB-2 cells (Homo sapiens, HSB2, 48 h) is 5.32; with HL-60 cells (Homo sapiens, 48 h), 5.22.

As to `Cc1nc2c(N3CCN(C(=O)COc4ccc(Cl)cc4)CC3)nc(N)nc2[nH]1` [Example 400, 1-(4-(2-amino-8-methyl-9H-purin-6-yl)piperazin-1-yl)-2-(4-chlorophenoxy)ethanone], the pIC50 with HSB-2 cells (Homo sapiens, HSB2, 48 h) was 5.69; in the data set on HL-60 cells (Homo sapiens, 48 h), 5.53.

For the molecule `Nc1nc(N2CCN(C(=O)COc3ccccc3)CC2)c2nc(-c3ccc(F)cc3)[nH]c2n1` [Example 401, 1-(4-(2-amino-8-(4-fluorophenyl)-9H-purin-6-yl)piperazin-1-yl)-2-phenoxyethanone], the negative-log IC50 (pIC50) with HSB-2 cells (Homo sapiens, HSB2, 48 h) is less than 5.00; with HL-60 cells (Homo sapiens, 48 h), less than 5.00.

Regarding `Nc1nc(N2CCN(CC(=O)Nc3cccnc3)CC2)c2nc(-c3ccc(F)cc3)[nH]c2n1` [Example 412], the negative-log IC50 (pIC50) in the data set on HSB-2 cells and with HL-60 cells was less than 5.00 throughout.

Take `Nc1nc(N2CCN(c3ccc(Cl)cc3)CC2)c2nc(-c3ccc(F)cc3)[nH]c2n1` [Example 414, 6-(4-(4-chlorophenyl)piperazin-1-yl)-8-(4-fluorophenyl)-9H-purin-2-amine]: the pIC50 in the data set on HSB-2 cells (Homo sapiens, HSB2, 48 h) is less than 5.00; in the data set on HL-60 cells (Homo sapiens, 48 h), less than 5.00.

Consider `Nc1nc(N2CCCN(C(=O)COc3ccc(Cl)cc3)CC2)c2nc(-c3ccc(F)cc3)[nH]c2n1` [Example 421, 1-(4-(2-amino-8-(4-fluorophenyl)-9H-purin-6-yl)-1,4-diazepan-1-yl)-2-(4-chlorophenoxy)ethanone], for which the negative-log IC50 (pIC50) in the data set with HSB-2 cells (Homo sapiens, HSB2, 48 h) is less than 5.00; with HL-60 cells (Homo sapiens, 48 h), less than 5.00.

Take `Cc1cccc(NC(=O)N2CCCN(c3nc(N)nc4[nH]c(-c5ccc(F)cc5)nc34)CC2)c1` [Example 422, 4-(2-amino-8-(4-fluorophenyl)-9H-purin-6-yl)-N-m-tolyl-1,4-diazepane-1-carboxamide]: the negative-log IC50 (pIC50) in the data set with HSB-2 cells (Homo sapiens, HSB2, 48 h) is less than 5.00; with HL-60 cells (Homo sapiens, 48 h) it was less than 5.00.

On to `CSc1nc2c(N3CCN(C(=O)COc4ccc(Cl)cc4)CC3)nc(N)nc2[nH]1` [Example 424, 1-(4-(2-amino-8-(methylthio)-9H-purin-6-yl)piperazin-1-yl)-2-(4-chlorophenoxy)ethanone], for which the pIC50 was 5.34 in the data set with HSB-2 cells (Homo sapiens, HSB2, 48 h) and 8.00 with HL-60 cells (Homo sapiens, 48 h).

For the molecule `CCCSc1nc2c(N3CCN(C(=O)COc4ccc(Cl)cc4)CC3)nc(N)nc2[nH]1` [Example 425, 1-(4-(2-amino-8-(propylthio)-9H-purin-6-yl)piperazin-1-yl)-2-(4-chlorophenoxy)ethanone], the negative-log IC50 (pIC50) with HSB-2 cells (Homo sapiens, HSB2, 48 h) was 5.34; in the data set on HL-60 cells (Homo sapiens, 48 h), 5.05.

On to `Nc1nc(N2CCN(C(=O)COc3ccc(Cl)cc3)CC2)c2nc(SCc3ccccc3)[nH]c2n1` [Example 426, 1-(4-(2-amino-8-(benzylthio)-9H-purin-6-yl)piperazin-1-yl)-2-(4-chlorophenoxy)ethanone], for which the negative logarithm of the IC50 (pIC50) in the data set with HSB-2 cells (Homo sapiens, HSB2, 48 h) is less than 5.00; in the data set with HL-60 cells (Homo sapiens, 48 h), less than 5.00.

With `CSc1nc2c(N3CCN(C(=O)COc4ccc(Cl)cc4)CC3)nc(N)nc2n1C` [Example 428, 1-(4-(2-amino-9-methyl-8-(methylthio)-9H-purin-6-yl)piperazin-1-yl)-2-(4-chlorophenoxy)ethanone], the pIC50 with HSB-2 cells (Homo sapiens, HSB2, 48 h) is 6.12; in the data set on HL-60 cells (Homo sapiens, 48 h) it was 5.80.

On to `Nc1nc(N2CCN(C(=O)COc3ccc(Cl)cc3)CC2)c2nc(SC3CCCC3)[nH]c2n1` [Example 429, 1-(4-(2-amino-8-(cyclopentylthio)-9H-purin-6-yl)piperazin-1-yl)-2-(4-chlorophenoxy)ethanone], for which the pIC50 in the data set on HSB-2 cells (Homo sapiens, HSB2, 48 h) is 5.10; in the data set with HL-60 cells (Homo sapiens, 48 h) it was less than 5.00.

As to `Cn1c(-c2ccc(F)cc2)nc2c(N3CCN(C(=O)COc4ccc(Cl)cc4)CC3)nc(N)nc21` [Example 430, 1-(4-(2-amino-8-(4-fluorophenyl)-9-methyl-9H-purin-6-yl)piperazin-1-yl)-2-(4-chlorophenoxy)ethanone], the pIC50 was 5.46 in the data set on HSB-2 cells (Homo sapiens, HSB2, 48 h) and 6.00 in the data set with HL-60 cells (Homo sapiens, 48 h).
